The values below are quoted from earlier work in patent publication US20230233494A1, “BIOAVAILABLE SUGAR-BASED DICLOFENAC FORMULATIONS” (APR Applied Pharma Research SA, priority 2020, published 2023).

Structures are written as SMILES. Where a name gives a salt, the structure may show the parent alone.

The conditions of the series: at acidic pH.

`O=C(O)Cc1ccccc1Nc1c(Cl)cccc1Cl` [diclofenac potassium, [2-(2,6-dichlorophenyl)amino]benzeneacetate, potassium salt]: the Solubility result was “sparingly soluble”.
